The results in this text go back to ChEMBL document CHEMBL5149964, “Discovery and development of selective aldehyde dehydrogenase 1A1 (ALDH1A1) inhibitors” (Eur J Med Chem, 2021).

For one experiment, the system named is TOV21G. Briefly: Anticancer activity against human TOV-21G-RT cells assessed as inhibition of cell growth. It is filed as functional, cell-based.
The subject of a further experiment is NCI/ADR-RES. Briefly: cells. The conditions noted are these: Homo sapiens.
The target in experiment [1] is T1, Aldehyde dehydrogenase 1A1 (Homo sapiens, UniProt P00352).
T1 sequence (P00352 whole entry): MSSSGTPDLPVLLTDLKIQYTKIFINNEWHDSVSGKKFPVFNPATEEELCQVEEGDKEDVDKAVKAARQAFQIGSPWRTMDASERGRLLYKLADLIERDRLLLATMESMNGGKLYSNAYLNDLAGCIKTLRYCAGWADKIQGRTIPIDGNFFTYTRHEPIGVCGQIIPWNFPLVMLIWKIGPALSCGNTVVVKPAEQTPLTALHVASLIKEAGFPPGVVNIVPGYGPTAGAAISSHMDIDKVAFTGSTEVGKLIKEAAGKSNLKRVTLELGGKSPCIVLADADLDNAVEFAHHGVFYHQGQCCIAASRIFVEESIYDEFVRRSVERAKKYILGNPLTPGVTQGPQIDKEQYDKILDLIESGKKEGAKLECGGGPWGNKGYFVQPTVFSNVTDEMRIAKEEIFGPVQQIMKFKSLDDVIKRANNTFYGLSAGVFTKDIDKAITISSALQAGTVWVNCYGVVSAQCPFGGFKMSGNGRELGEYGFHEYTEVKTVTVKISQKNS
Put plainly: Inhibition of ALDH1A1 (unknown origin).

Experiment [2] addresses T1, Aldehyde dehydrogenase 1A1. Briefly: Inhibition of human ALDH1A1 expressed in Escherichia coli BL21(DE3) pLys cell in presence of NAD+ by fluorescence based assay.
Experiment [3] has as its target T2, Retinaldehyde dehydrogenase 3 (Homo sapiens, UniProt P47895).
T2 sequence (P47895 whole entry): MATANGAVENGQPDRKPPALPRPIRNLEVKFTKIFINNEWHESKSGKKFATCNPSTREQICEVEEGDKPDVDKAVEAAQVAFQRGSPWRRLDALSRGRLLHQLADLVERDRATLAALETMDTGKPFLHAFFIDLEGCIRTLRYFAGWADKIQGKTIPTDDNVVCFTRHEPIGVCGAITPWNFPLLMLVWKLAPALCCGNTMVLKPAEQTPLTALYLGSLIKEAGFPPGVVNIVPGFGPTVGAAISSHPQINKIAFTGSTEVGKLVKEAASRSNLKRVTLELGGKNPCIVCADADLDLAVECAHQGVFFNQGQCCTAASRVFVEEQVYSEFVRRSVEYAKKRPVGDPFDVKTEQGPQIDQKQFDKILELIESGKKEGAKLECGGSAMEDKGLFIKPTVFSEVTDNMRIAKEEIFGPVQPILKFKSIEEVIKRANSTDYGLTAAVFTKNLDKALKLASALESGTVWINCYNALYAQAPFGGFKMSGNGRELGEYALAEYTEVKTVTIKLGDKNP
Put plainly: Inhibition of human ALDH1A3 expressed in Escherichia coli BL21(DE3) pLys cell in presence of NAD+ by fluorescence based assay.

The target of experiment [4] is T3, Aldehyde dehydrogenase 1A1 (Homo sapiens) (UniProt P00352).
T3 sequence (whole entry): T1 sequence (P00352 whole entry)
Put plainly: Inhibition of human ALDH1A1 assessed as fluorescent enhancement checked in presence of NAD+ by fluorescence based assay.

For another experiment, the system named is A549. Briefly: Anticancer activity against human A549 cells assessed as inhibition of cell growth by MTT assay. The class given is functional, cell-based. Background: Formazan colour is commonly taken as a measure of viable cells.
In experiment [5] the target is T1, Aldehyde dehydrogenase 1A1. Put plainly: Inhibition of human ALDH1A1 using propionaldehyde as substrate in presence of NAD+ by UV-visible spectrophometric analysis.

The IC50 is the concentration needed to halve the response being measured. With `COc1cccc2c1C(=O)c1c(O)c3c(c(O)c1C2=O)C[C@@](O)(C(=O)CO)C[C@@H]3O[C@H]1C[C@H](N)[C@H](O)[C@H](C)O1` [DOXORUBICIN], the IC50 was determined as 373 nM in the experiment with TOV21G and 206 nM in the experiment with NCI/ADR-RES.
In turn, `CCC(SC1=Nc2ccccc2C2=NC(CC(C)C)C(=O)N12)C(=O)Nc1ccccc1` (centres undefined) gave an IC50 in experiment [1] of 570 nM.
With `O=C(O)CN1C(=O)S/C(=C/c2ccc(OCc3nc4ccccc4c(=O)n3-c3ccccc3)cc2)C1=O`, the IC50 amounted to 5400 nM in experiment [2] and 23000 nM in experiment [3].
With `CCC(SC1=Nc2ccccc2C2=NC(C(C)C)C(=O)N12)C(=O)Nc1ccccc1` (centres undefined), the IC50 in experiment [1] was found to be 440 nM.
On to `Cc1cc(C=O)ccc1-c1c2cc(F)c(=O)cc-2oc2cc(O)c(F)cc12`, for which the Activity in experiment [4] stood at 20.
As for `CCCCCC(=O)N1C[C@@H](CCl)c2c1ccc1ccccc21`, the IC50 in the experiment with A549 was 28 nM.
In turn, `CCC(SC1=Nc2ccccc2C2=NC(C(C)CC)C(=O)N12)C(=O)N1CCc2ccccc21` (centres undefined) yielded an IC50 in experiment [1] of 390 nM.
As to `CC(C)CCn1c(CN2CCN(C(N)=O)CC2)nc2c1c(=O)n(C)c(=O)n2C`, the IC50 in experiment [5] amounted to 210 nM.
For the compound `CCC(SC1=Nc2ccccc2C2=NC(C(C)C)C(=O)N12)C(=O)N1CCc2ccccc21` (centres undefined), in experiment [1], the midpoint of inhibition, the IC50, lay at 840 nM.
Take `CC(=O)O[C@H]1C(=O)[C@@]2(C)[C@H]([C@H](OC(=O)c3ccccc3)[C@]3(O)C[C@H](OC(=O)[C@H](O)[C@@H](NC(=O)c4ccccc4)c4ccccc4)C(C)=C1C3(C)C)[C@]1(OC(C)=O)CO[C@@H]1C[C@@H]2O` [PACLITAXEL]: the IC50 in the experiment on TOV21G was determined as 264 nM; with NCI/ADR-RES, 181 nM.
Regarding `CCC(SC1=Nc2ccccc2C2=NC(CC(C)C)C(=O)N12)C(=O)N1CCc2ccccc21` (centres undefined), in experiment [1], inhibition was half-maximal at 1180 nM (IC50).
